From US6461997B1, “Triazole sulfones having herbicidal activity” (Monsanto Technology LLC, priority 1999, dated 2002)

Tests used:
[1] = tested on: SOLNI (black nightshade); test: Pre-emergence herbicidal activity, warm season; type: in vivo, Solanum nigrum; conditions: GR80 = lowest tested rate (300, 100, 30, 10 g/ha) with 80% or greater inhibition; approx. 14 days after treating; 30/21° C.
How it was run: (§1)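 GR80 values derive from percent inhibition relative to untreated plants, read roughly 14 days after sowing and pre-emergence soil-surface treatment (compound in 50:50 acetone/water; rates typically 10, 30, 100, 300 g/ha). Warm-season weeds grew at 30/21° C day/night, cool-season ones at 18/13° C; an asterisk marks activity without reaching 80% at the highest rate.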

[2] = tested on: CHEAL (common lambsquarters); test: Pre-emergence herbicidal activity, warm season; type: in vivo, Chenopodium album; conditions: GR80 = lowest tested rate (300, 100, 30, 10 g/ha) with 80% or greater inhibition; approx. 14 days after treating; 30/21° C.
How it was run: as §1

[3] = tested on: SETFA (giant foxtail); test: Pre-emergence herbicidal activity, warm season; type: in vivo, Setaria faberi; conditions: GR80 = lowest tested rate (300, 100, 30, 10 g/ha) with 80% or greater inhibition; approx. 14 days after treating; 30/21° C.
How it was run: as §1

[4] = tested on: GALAP (catchweed bedstraw); test: Pre-emergence herbicidal activity, cool season; type: in vivo, Galium aparine; conditions: lowest tested rate with 80% or greater inhibition; rates 300, 100, 30, 10 g/ha; about 14 days
How it was run: as §1

[5] = tested on: LAMPU (purple deadnettle); test: Pre-emergence herbicidal activity, cool season; type: in vivo, Lamium purpureum; conditions: lowest tested rate with 80% or greater inhibition; rates 300, 100, 30, 10 g/ha; about 14 days
How it was run: as §1

[6] = tested on: ABUTH (velvetleaf); test: Pre-plant incorporated (PPI) herbicidal activity, warm season; type: in vivo, Abutilon theophrasti; conditions: for Percent inhibition ABUTH: PPI application
Procedure: (§2) In another set of tests, the pre-plant incorporated (PPI) activity of compounds of this invention was evaluated on the same species as for the pre-emergence tests described above. In the PPI tests the following procedure, designed to simulate PPI application, was used.
(§3) A pre-prepared topsoil mixture (described above) was placed in a pot and compacted to a depth of 1.0 to 1.25 cm from the top of the pot. Seeds of each of several monocotyledonous and dicotyledonous annual plant species were placed on top of the soil. A sufficient quantity of soil to cover the seeds and level fill the pot was weighed into an open container. A known amount of the test compound was dissolved or suspended in an organic solvent and applied by spraying to this cover soil. The cover soil was thoroughly mixed to distribute the test compound throughout the cover soil, and was then applied as a cover layer over the seeds. Untreated soil was used as a cover layer for control pots. After treatment the plants were placed in a greenhouse where they received 0.64 cm of overhead irrigation. All subsequent watering consisted of a light overhead mist and/or subirrigation as needed for germination and growth. Tables 9 and 10 below relate to warm season plant species which were placed after pre-emergence treatment in a greenhouse with a 30/21° C. day/night temperature regime. Tables 11 and 12 below relates to cool season plant species placed after pre-emergence treatment in a greenhouse or growth chamber with an 18/13° C. day/night temperature regime. Only the compounds of Examples 1, 6, 8, 11, 13 and 15-20 were included in PPI tests.
(§4) Approximately 14 days after planting and treating, the plants were observed and herbicidal efficacy recorded as percent inhibition by comparison with untreated plants.

[7] = tested on: SOLNI (black nightshade); test: as above; type: in vivo, Solanum nigrum; conditions: for Percent inhibition SOLNI: PPI application
Procedure: as §2, §3, §4

[8] = tested on: SETFA (giant foxtail); test: as above; type: in vivo, Setaria faberi; conditions: for Percent inhibition SETFA: PPI application
Procedure: as §2, §3, §4

[9] = tested on: SINAR (wild mustard); test: Pre-plant incorporated (PPI) herbicidal activity, cool season; type: in vivo, Sinapis arvensis; conditions: for Percent inhibition SINAR: weed, PPI application
Procedure: as §2, §3, §4

[10] = tested on: BROTE (downy brome); test: as above; type: in vivo, Bromus tectorum; conditions: for Percent inhibition BROTE: weed, PPI application
Procedure: as §2, §3, §4

[11] = tested on: oilseed rape (BRSNS); test: Selectivity test, PPI, cool season crop; type: in vivo, Brassica napus; conditions: PPI application
Procedure: as §3, §4
Additional pre-emergence and PPI tests were conducted by the procedures described above, on warm and cool season weed species in the presence of crop species, to assess herbicidal selectivity. Crop species included in warm season tests were corn (Zea mays, ZEAMX), rice (Oryza sativa, ORYSA) and soybean (Glycine max, GLYMX). Crop species included in cool season tests were wheat (Triticum aestivum, TRZAW), barley (Hordeunm vulgare, HORVX) and oilseed rape (Brassica napus, BRSNS).
Tables 15 and 16 relate to pre-emergence and PPI tests respectively on warm season species. Table 17 relates to pre-emergence tests on cool season species.

[12] = pre-plant incorporated, GR80 = lowest tested rate with 80% or greater inhibition, approx. 14 days after treating, 30/21° C.
[13] = pre-plant incorporated, lowest tested rate with 80% or greater inhibition, about 14 days

Row | Compound | Pre-emergence activity (GR80) SOLNI [1] [g/ha] | Pre-emergence activity (GR80) CHEAL [2] [g/ha] | Pre-emergence activity (GR80) SETFA [3] [g/ha] | Pre-emergence activity GR80, GALAP [4] | Pre-emergence activity GR80, LAMPU [5] [g/ha] | Percent inhibition ABUTH ([6]; 30 g/ha) [%] | Percent inhibition ABUTH ([6]; 100 g/ha) [%] | Percent inhibition ABUTH ([6]; 300 g/ha) [%] | Percent inhibition ABUTH ([6]; 900 g/ha) [%] | Percent inhibition SOLNI ([7]; 100 g/ha) [%] | Percent inhibition SOLNI ([7]; 300 g/ha) [%] | Percent inhibition SOLNI ([7]; 900 g/ha) [%] | Percent inhibition SETFA ([8]; 30 g/ha) [%] | Percent inhibition SETFA ([8]; 100 g/ha) [%] | Percent inhibition SETFA ([8]; 300 g/ha) [%] | Percent inhibition SETFA ([8]; 900 g/ha) [%] | Percent inhibition SINAR ([9]; 30 g/ha) [%] | Percent inhibition SINAR ([9]; 100 g/ha) [%] | Percent inhibition SINAR ([9]; 300 g/ha) [%] | Percent inhibition SINAR ([9]; 900 g/ha) [%] | other results
1 | CCN(CC)C(=O)n1cnc(S(=O)(=O)C(F)(F)SC)n1 [Example 9] | 100 | 300 | 100 | [empty] | 300 | 0 | 0 | 60 | 90 | 100 | 100 | 99 | 95 | 100 | 100 | 100 | 100 | 100 | 70 | 100 | Percent inhibition SOLNI ([7]; 30 g/ha): 95%; Percent inhibition BROTE ([10]; 30 g/ha): 0%; Percent inhibition BROTE ([10]; 100 g/ha): 0%; Percent inhibition BROTE ([10]; 300 g/ha): 20%; Percent inhibition BROTE ([10]; 900 g/ha): 95%; Percent inhibition BRSNS ([11]; 30 g/ha): 50%; Percent inhibition BRSNS ([11]; 100 g/ha): 95%; Percent inhibition BRSNS ([11]; 300 g/ha): 100%; Percent inhibition BRSNS ([11]; 900 g/ha): 100%
2 | CCN(CC)C(=O)n1cnc(S(=O)(=O)C(F)(F)C(F)F)n1 [Example 16] | 100 | 300 | 30 | 100 g/ha | 100 | 0 | 0 | 30 | 95 | 100 | 95 | 100 | 80 | 100 | 100 | 100 | 50 | 100 | 100 | 100 | Percent inhibition ABUTH ([6]; 10 g/ha): 0%; PPI activity (GR80) ABUTH [6, 12]: 100 g/ha; Percent inhibition SOLNI ([7]; 10 g/ha): 100%; PPI activity (GR80) SOLNI [7, 12]: 30 g/ha; Percent inhibition SETFA ([8]; 10 g/ha): 80%; PPI activity GR80, SETFA [8, 13]: 10 g/ha; PPI activity GR80, SINAR [9, 13]: 10 g/ha; Percent inhibition SINAR ([9]; 10 g/ha): 0%; PPI activity GR80, BROTE [10, 13]: 300 g/ha; Percent inhibition BROTE ([10]; 10 g/ha): 0%; Percent inhibition BROTE ([10]; 30 g/ha): 0%; Percent inhibition BROTE ([10]; 100 g/ha): 35%; Percent inhibition BROTE ([10]; 300 g/ha): 40%; Percent inhibition BROTE ([10]; 900 g/ha): 90%; Percent inhibition BRSNS ([11]; 10 g/ha): 0%; Percent inhibition BRSNS ([11]; 30 g/ha): 0%; Percent inhibition BRSNS ([11]; 100 g/ha): 0%; Percent inhibition BRSNS ([11]; 300 g/ha): 30%; Percent inhibition BRSNS ([11]; 900 g/ha): 75%
3 | CCN(CC)C(=O)n1cnc(S(=O)(=O)C(F)(F)C(F)(F)Br)n1 [Example 4] | 300 | 30 | 30 | 100 g/ha | 30 | 0 | 0 | 20 | 70 | 95 | 100 | 100 | 100 | 100 | 100 | 100 | 95 | 100 | 100 | 100 | Percent inhibition SOLNI ([7]; 30 g/ha): 60%; Percent inhibition BROTE ([10]; 30 g/ha): 0%; Percent inhibition BROTE ([10]; 100 g/ha): 50%; Percent inhibition BROTE ([10]; 300 g/ha): 85%; Percent inhibition BROTE ([10]; 900 g/ha): 90%; Percent inhibition BRSNS ([11]; 30 g/ha): 80%; Percent inhibition BRSNS ([11]; 100 g/ha): 100%; Percent inhibition BRSNS ([11]; 300 g/ha): 100%; Percent inhibition BRSNS ([11]; 900 g/ha): 100%
